Our source for the Kd values is US20170291875A1, “QUINOLONES AS INHIBITORS OF CLASS IV BROMODOMAIN PROTEINS” (UCL BUSINESS PLC, priority 2014, published 2017).

A word on the Kd: it is a measure of binding affinity in units of concentration.

Test [1] deals with T1, BRD9 (Homo sapiens, UniProt Q9H8M2).
T1 construct: purchased DiscoveRx (BROMOscan platform); host or cells: E. coli host derived from BL21 (T7 phage)
T1 sequence (Q9H8M2 136-240 limits assumed): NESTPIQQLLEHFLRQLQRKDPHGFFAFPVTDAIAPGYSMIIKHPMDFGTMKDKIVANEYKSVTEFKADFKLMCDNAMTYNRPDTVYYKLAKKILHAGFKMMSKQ
Description: BROMOscan bromodomain competitive binding assay (DiscoveRx), BRD9. To be noted: BROMOscan platform, n = 2. How it is done: (§1) Compounds were tested using the commercially available BROMOscan™ Platform (DiscoveRx): http://www.discoverx.com/technologies-platforms/competitive-binding-technology/bromoscan-technology-platform/bromoscan-assay-process.
(§2) Bromodomain assays. T7 phage strains displaying bromodomains were grown in parallel in 24-well blocks in an E. coli host derived from the BL21 strain. E. coli were grown to log-phase and infected with T7 phage from a frozen stock (multiplicity of infection=0.4) and incubated with shaking at 32° C. until lysis (90-150 minutes). The lysates were centrifuged (5,000×g) and filtered (0.2 μm) to remove cell debris. […] The liganded beads were blocked with excess biotin and washed with blocking buffer (SeaBlock (Pierce), 1% BSA, 0.05% Tween 20, 1 mM DTT) to remove unbound ligand and to reduce non-specific phage binding. […] Test compounds were prepared as 1000× stocks in 100% DMSO and subsequently diluted 1:10 in monoethylene glycol (MEG) to create stocks at 100× the screening concentration (resulting stock solution is 10% DMSO/90% MEG). The compounds were then diluted directly into the assays such that the final concentration of DMSO and MEG were 0.1% and 0.9%, respectively. All reactions were performed in polystyrene 96-well plates in a final volume of 0.135 ml. […] The bromodomain concentration in the eluates was measured by qPCR.
(§3) An 11-point 3-fold serial dilution of each test compound was prepared in 100% DMSO at 1000× final test concentration. This serial is then diluted to 100× in ethylene glycol and subsequently diluted to 1× in the assay (final DMSO concentration=0.1%, Ethylene glycol concentration=0.9%). Most Kds were determined using a compound top concentration=10,000 nM.
(§4) Binding constants (Kds) were calculated with a standard dose-response curve using the Hill equation: […]
(§5) The Hill Slope was set to −1. Curves were fitted using a non-linear least square fit with the Levenberg-Marquardt algorithm.
(§6) BROMOscan™ uses the same assay technology as KINOMEscan™. For a more detailed description of this assay technology, see Fabian et al.12

Test [2] has as its target T2, BRD1 (Homo sapiens, UniProt O95696).
T2 construct: purchased DiscoveRx (BROMOscan platform); host or cells: E. coli host derived from BL21 (T7 phage)
T2 sequence (O95696 562-666 limits assumed): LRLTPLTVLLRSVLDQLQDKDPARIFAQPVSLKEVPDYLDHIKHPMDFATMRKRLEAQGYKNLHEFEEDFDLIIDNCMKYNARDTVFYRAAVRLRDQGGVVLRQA
In words: BROMOscan bromodomain competitive binding assay (DiscoveRx), BRD1. To be noted: BROMOscan platform, n = 2. How it is done:
as §1, §2, §3, §4, §5, §6

The target of test [3] is T3, BRPF3 (Homo sapiens, UniProt Q9ULD4).
T3 construct: purchased DiscoveRx (BROMOscan platform); host or cells: E. coli host derived from BL21 (T7 phage)
T3 sequence (Q9ULD4 589-693 limits assumed): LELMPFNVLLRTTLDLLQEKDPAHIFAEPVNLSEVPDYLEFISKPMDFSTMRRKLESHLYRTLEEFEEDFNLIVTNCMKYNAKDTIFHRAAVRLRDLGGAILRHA
In words: BROMOscan bromodomain competitive binding assay (DiscoveRx), BRPF3. To be noted: BROMOscan platform, n = 2. How it is done: as §1, §2, §3, §4, §5, §6

For test [4], the target named is T4, BRPF1B (Homo sapiens, UniProt P55201).
T4 construct: purchased DiscoveRx (BROMOscan platform); host or cells: E. coli host derived from BL21 (T7 phage)
T4 sequence (P55201 628-732 limits assumed): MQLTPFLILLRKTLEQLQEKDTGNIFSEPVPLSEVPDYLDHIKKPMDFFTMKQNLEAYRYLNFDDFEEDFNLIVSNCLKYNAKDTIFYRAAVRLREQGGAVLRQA
Description: BROMOscan bromodomain competitive binding assay (DiscoveRx), BRPF1B. To be noted: BROMOscan platform, n = 2 unless cell says n = 4. How it is done:
as §1, §2, §3, §4, §5, §6

The target of test [5] is T5, BRD7 (Homo sapiens, UniProt Q9NPI1).
T5 construct: purchased DiscoveRx (BROMOscan platform); host or cells: E. coli host derived from BL21 (T7 phage)
T5 sequence (Q9NPI1 131-235 limits assumed): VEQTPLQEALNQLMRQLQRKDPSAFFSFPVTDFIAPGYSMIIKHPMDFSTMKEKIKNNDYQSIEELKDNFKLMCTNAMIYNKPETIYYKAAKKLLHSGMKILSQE
Description: BROMOscan bromodomain competitive binding assay (DiscoveRx), BRD7. To be noted: BROMOscan platform, n = 2. How it is done:
as §1
Bromodomain assays. T7 phage strains displaying bromodomains were grown in parallel in 24-well blocks in an E. coli host derived from the BL21 strain. E. coli were grown to log-phase and infected with T7 phage from a frozen stock (multiplicity of infection=0.4) and incubated with shaking at 32° C. until lysis (90-150 minutes). The lysates were centrifuged (5,000×g) and filtered (0.2 μm) to remove cell debris. […] The liganded beads were blocked with excess biotin and washed with blocking buffer (SeaBlock (Pierce), 1% BSA, 0.05% Tween 20, 1 mM DTT) to remove unbound ligand and to reduce non-specific phage binding. […] The bromodomain concentration in the eluates was measured by qPCR.
An 11-point 3-fold serial dilution of each test compound was prepared in 100% DMSO at 1000× final test concentration. […] Most Kds were determined using a compound top concentration=10,000 nM.
as §4

Regarding `Cn1c(=O)ccc2cc(NS(=O)(=O)c3ccc(C#N)cc3)ccc21` [Compound 4, 4-cyano-N-(1-methyl-2-oxo-1,2-dihydroquinolin-6-yl)benzenesulfonamide], the Kd in test [1] was 0.91 µM; in test [2], 0.2 µM; in test [3] it was 1 µM; in test [4], 0.043 µM.

With `COc1cc2c(ccc(=O)n2C)cc1NS(=O)(=O)c1ccc(C#N)cc1` [Compound 11, 4-cyano-N-(7-methoxy-1-methyl-2-oxo-1,2-dihydroquinolin-6-yl)benzenesulfonamide], the dissociation constant (Kd) in test [1] was 2.7 µM; in test [2] it was 0.52 µM; in test [3], 2.2 µM; in test [4], 0.053 µM.

For `Cc1cc2cc(NS(=O)(=O)c3ccc(C#N)cc3)ccc2n(C)c1=O` [Compound 19, 4-cyano-N-(1,3-dimethyl-2-oxo-1,2-dihydroquinolin-6-yl)benzenesulfonamide], the equilibrium dissociation constant (Kd) in test [1] came to 0.31 µM; in test [2] it was 0.048 µM; in test [3], 0.26 µM; in test [4], 0.0079 µM; in test [5], 0.082 µM.

With `COc1cc2c(cc1NS(=O)(=O)c1ccc(C#N)cc1OC)cc(C)c(=O)n2C` [Compound 27, 4-cyano-2-methoxy-N-(7-methoxy-1,3-dimethyl-2-oxo-1,2-dihydroquinolin-6-yl)benzenesulfonamide], the Kd in test [1] was found to be 0.17 µM; in test [2], 0.08 µM; in test [3] it was 0.19 µM; in test [4] it was 0.012 µM.

`COc1cc2c(cc1NS(=O)(=O)c1ccc(C#N)cc1)c(C)cc(=O)n2C` [Compound 33, 4-cyano-N-(7-methoxy-1,4-dimethyl-2-oxo-1,2-dihydroquinolin-6-yl)benzenesulfonamide]: the dissociation constant Kd in test [1] came out at 0.89 µM; in test [2], 1.8 µM; in test [3] it was 9.3 µM; in test [4], 0.06 µM; in test [5], 21 µM.
